Activity calls are given as the source filed them. The rule behind the calls is not given here.
Columns and labels:
[1] = Clearance in Sprague-Dawley rat at 1 mg/kg, iv and measured upto 24 hrs by LC-MS/MS analysis; details: in vivo
[2] = Clearance in ICR mouse at 1 mg/kg, iv and measured upto 24 hrs by LC-MS/MS analysis; type: ADME, organism-based; details: in vivo
[3] = Half life in ICR mouse at 3 mg/kg, po and measured upto 24 hrs by LC-MS/MS analysis; type: ADME, organism-based; details: in vivo
[4] = Cmax in ICR mouse at 3 mg/kg, po and measured upto 24 hrs by LC-MS/MS analysis; type: ADME, organism-based; set-up: dose 3 mg/kg, time < 24 hrs, route po; details: in vivo
[5] = AUC in ICR mouse at 3 mg/kg, po and measured upto 24 hrs by LC-MS/MS analysis; type: ADME, organism-based; set-up: dose 3 mg/kg, time < 24 hrs, route po; details: in vivo
[6] = Oral bioavailability in ICR mouse at 3 mg/kg and measured upto 24 hrs by LC-MS/MS analysis; type: ADME, organism-based; details: in vivo
[7] = Oral bioavailability in Beagle dog at 1 mg/kg and measured upto 24 hrs by LC-MS/MS analysis; type: ADME, organism-based, Canis lupus familiaris; details: in vivo
[8] = target: Protein cereblon/Estrogen receptor (Homo sapiens, UniProt P03372+Q96SW2); test: Protac activity at human ERalpha in ER positive human MCF7 cells assessed as reduction in ERalpha protein level at 0.1 to 30 nM by Western blot analysis; type: cell-based; details: dose 0.1-30 nM
Sequence of Protein cereblon/Estrogen receptor (P03372 whole entry, looked up): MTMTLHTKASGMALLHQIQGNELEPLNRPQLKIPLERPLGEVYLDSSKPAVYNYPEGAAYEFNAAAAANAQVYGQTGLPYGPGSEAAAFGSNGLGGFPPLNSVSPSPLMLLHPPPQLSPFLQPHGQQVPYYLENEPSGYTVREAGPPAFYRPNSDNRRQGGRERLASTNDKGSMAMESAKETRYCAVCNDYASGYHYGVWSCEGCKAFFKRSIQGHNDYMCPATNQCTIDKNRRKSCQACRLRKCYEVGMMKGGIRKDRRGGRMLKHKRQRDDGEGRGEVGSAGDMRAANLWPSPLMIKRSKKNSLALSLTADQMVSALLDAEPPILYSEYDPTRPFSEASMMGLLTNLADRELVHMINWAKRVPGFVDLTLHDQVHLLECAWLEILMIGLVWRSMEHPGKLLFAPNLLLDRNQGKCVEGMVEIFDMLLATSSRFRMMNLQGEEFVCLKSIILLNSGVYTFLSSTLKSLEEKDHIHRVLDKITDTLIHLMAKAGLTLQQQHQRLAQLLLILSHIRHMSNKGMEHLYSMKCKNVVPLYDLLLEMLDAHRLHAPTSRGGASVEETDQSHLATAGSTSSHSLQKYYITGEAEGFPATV
Sequence of Protein cereblon/Estrogen receptor (Q96SW2 whole entry, looked up): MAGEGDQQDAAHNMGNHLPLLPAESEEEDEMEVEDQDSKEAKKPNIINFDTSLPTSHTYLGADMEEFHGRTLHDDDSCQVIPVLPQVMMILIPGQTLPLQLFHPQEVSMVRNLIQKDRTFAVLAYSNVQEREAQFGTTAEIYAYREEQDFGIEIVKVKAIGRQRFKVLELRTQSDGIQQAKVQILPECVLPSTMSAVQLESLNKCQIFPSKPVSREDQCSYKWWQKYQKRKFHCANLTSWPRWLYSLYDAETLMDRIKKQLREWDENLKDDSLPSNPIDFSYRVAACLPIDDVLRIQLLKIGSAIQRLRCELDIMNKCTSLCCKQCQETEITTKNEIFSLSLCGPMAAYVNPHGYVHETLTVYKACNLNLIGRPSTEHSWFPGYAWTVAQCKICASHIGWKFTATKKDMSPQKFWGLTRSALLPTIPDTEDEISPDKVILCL

[9] = Metabolic stability in human liver microsomes assessed as half life at 1 uM and measured upto 60 mins in presence of NADPH by LC-MS/MS analysis; type: ADME, Microsome
[10] = Metabolic stability in rat liver microsomes assessed as half life at 1 uM and measured upto 60 mins in presence of NADPH by LC-MS/MS analysis; type: ADME, Microsome
[11] = target: Voltage-gated inwardly rectifying potassium channel KCNH2 (Homo sapiens, UniProt Q12809); test: Inhibition of human ERG in human HEK293 cells incubated for 5 mins by patch clamp assay; type: toxicity, cell-based
Sequence of Voltage-gated inwardly rectifying potassium channel KCNH2 (Q12809 whole entry): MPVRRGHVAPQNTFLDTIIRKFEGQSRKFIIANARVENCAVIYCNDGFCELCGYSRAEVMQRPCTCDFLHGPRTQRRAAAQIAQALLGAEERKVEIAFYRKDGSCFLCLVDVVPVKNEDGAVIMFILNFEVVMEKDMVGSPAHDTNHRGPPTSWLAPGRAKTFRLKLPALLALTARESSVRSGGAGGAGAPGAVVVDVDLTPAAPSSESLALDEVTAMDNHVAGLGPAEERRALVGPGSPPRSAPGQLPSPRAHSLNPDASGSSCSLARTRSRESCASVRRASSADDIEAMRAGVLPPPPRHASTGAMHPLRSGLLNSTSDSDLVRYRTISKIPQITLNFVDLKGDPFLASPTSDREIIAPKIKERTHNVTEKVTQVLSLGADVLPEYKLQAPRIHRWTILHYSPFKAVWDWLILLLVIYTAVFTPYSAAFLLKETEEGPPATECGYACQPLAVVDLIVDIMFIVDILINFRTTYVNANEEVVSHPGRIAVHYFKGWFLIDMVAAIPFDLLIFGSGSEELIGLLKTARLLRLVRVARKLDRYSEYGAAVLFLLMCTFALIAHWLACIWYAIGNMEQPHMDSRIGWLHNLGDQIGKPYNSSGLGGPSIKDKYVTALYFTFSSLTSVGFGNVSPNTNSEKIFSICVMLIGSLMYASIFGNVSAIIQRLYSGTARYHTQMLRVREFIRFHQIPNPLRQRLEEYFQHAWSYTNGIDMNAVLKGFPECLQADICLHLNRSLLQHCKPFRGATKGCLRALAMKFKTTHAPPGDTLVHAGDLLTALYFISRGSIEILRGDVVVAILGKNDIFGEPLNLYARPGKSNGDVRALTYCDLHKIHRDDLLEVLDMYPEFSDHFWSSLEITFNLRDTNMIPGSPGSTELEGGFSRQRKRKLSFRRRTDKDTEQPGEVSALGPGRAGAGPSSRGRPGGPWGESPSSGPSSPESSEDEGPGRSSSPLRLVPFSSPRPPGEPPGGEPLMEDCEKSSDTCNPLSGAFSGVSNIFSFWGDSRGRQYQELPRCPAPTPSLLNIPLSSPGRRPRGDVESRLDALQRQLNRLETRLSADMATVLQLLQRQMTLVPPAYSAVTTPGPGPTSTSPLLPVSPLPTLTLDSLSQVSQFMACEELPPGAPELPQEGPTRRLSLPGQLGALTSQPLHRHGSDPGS

Cytochrome P450 3A4 = Cytochrome P450 3A4 (Homo sapiens, UniProt P08684); test: Inhibition of CYP3A4 in human liver microsomes using midazolam as substrate preincubated for 5 mins followed by NADPH addition and measured after 10 mins by LC-MS/MS analysis; type: ADME, Microsome
Sequence of Cytochrome P450 3A4 (P08684 whole entry): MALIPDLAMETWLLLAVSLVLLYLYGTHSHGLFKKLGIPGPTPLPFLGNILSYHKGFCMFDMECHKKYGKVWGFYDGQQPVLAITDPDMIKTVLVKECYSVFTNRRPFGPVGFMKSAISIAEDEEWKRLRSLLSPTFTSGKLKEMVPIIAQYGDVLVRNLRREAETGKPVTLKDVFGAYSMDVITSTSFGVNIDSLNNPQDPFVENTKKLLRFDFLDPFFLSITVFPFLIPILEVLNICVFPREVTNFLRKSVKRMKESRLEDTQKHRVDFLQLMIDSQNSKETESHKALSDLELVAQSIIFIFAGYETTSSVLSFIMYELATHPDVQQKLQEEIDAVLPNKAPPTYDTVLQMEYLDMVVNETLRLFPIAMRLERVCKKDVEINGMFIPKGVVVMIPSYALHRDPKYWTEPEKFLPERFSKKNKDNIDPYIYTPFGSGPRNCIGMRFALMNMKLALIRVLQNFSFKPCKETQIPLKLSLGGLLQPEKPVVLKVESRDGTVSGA

[12] = Downregulation of ERalpha protein expression in tumor of CB17 SCID mouse xenografted with human MCF7 cells harboring wild type ESR1 at 10 mg/kg, po qd for 3 days and measured after 6 hrs last dose by Western blot analysis relative to control; type: functional; details: time 3 day
[13] = Drug concentration in plasma of CB17 SCID mouse xenografted with human MCF7 cells harboring wild type ESR1 at 10 mg/kg, po qd for 3 days and measured after 6 hrs last dose by LC-MS/MS analysis; type: ADME, organism-based; details: time 3 day
[14] = Drug concentration in plasma of CB17 SCID mouse xenografted with human MCF7 cells harboring wild type ESR1 at 10 mg/kg, po qd for 3 days and measured after 24 hrs last dose by LC-MS/MS analysis; type: ADME, organism-based; details: time 3 day
[15] = Drug concentration in plasma of CB17 SCID mouse xenografted with human MCF7 cells harboring wild type ESR1 at 30 mg/kg, po qd for 3 days and measured after 24 hrs last dose by LC-MS/MS analysis; type: ADME, organism-based; details: time 3 day
[16] = Drug concentration in tumor of CB17 SCID mouse xenografted with human MCF7 cells harboring wild type ESR1 at 10 mg/kg, po qd for 3 days and measured after 24 hrs last dose by LC-MS/MS analysis; type: ADME, organism-based, Neoplasm; details: time 3 day, read-out: Ct
[17] = Drug concentration in plasma of CB17 SCID mouse xenografted with human MCF7 cells harboring wild type ESR1 at 30 mg/kg, po qd for 3 days and measured after 3 hrs last dose by LC-MS/MS analysis; type: ADME, organism-based; details: time 3 day
[18] = Drug concentration in tumor of CB17 SCID mouse xenografted with human MCF7 cells harboring wild type ESR1 at 30 mg/kg, po qd for 3 days and measured after 3 hrs last dose by LC-MS/MS analysis; type: ADME, organism-based, Neoplasm; details: time 3 day, read-out: Ct
[19] = Downregulation of ERalpha protein expression in tumor of CB17 SCID mouse xenografted with human MCF7 cells harboring ESR1 Y537S mutant at 10 mg/kg, po qd for 3 days and measured after 6 hrs last dose by Western blot analysis relative to control; type: functional; details: time 3 day
[20] = Drug concentration in plasma of CB17 SCID mouse xenografted with human MCF7 cells harboring ESR1 Y537S mutant at 30 mg/kg, po qd for 3 days and measured after 6 hrs last dose by LC-MS/MS analysis; type: ADME, organism-based; details: time 3 day
[21] = Drug concentration in tumor of CB17 SCID mouse xenografted with human MCF7 cells harboring ESR1 Y537S mutant at 10 mg/kg, po qd for 3 days and measured after 6 hrs last dose by LC-MS/MS analysis; type: ADME, organism-based, Neoplasm; details: time 3 day, read-out: Ct
[22] = Drug concentration in tumor of CB17 SCID mouse xenografted with human MCF7 cells harboring ESR1 Y537S mutant at 30 mg/kg, po qd for 3 days and measured after 6 hrs last dose by LC-MS/MS analysis; type: ADME, organism-based, Neoplasm; details: time 3 day, read-out: Ct
[23] = Drug concentration in tumor of CB17 SCID mouse xenografted with human MCF7 cells harboring ESR1 D538G mutant at 10 mg/kg, po qd for 3 days and measured after 6 hrs last dose by LC-MS/MS analysis; type: ADME, organism-based, Neoplasm; details: time 3 day, read-out: Ct
MCF7 [24] = test: Antitumor activity against human MCF7 cells harboring wild type ESR1 xenografted in CB17 SCID mouse assessed as tumor growth inhibition at 10 mg/kg, po qd for 5 weeks; type: functional; details: MCF7, 840 h, read-out: TGI
MCF7 [25] = test: Antitumor activity against human MCF7 cells harboring wild type ESR1 xenografted in CB17 SCID mouse assessed as tumor growth inhibition at 30 mg/kg, po qd for 5 weeks; type: functional; details: MCF7, 840 h, read-out: TGI
MCF7 [26] = test: Antitumor activity against human MCF7 cells harboring wild type ESR1 xenografted in CB17 SCID mouse assessed as tumor growth inhibition at 10 mg/kg, po qd for 5 weeks and measured 3 weeks post last dose; type: functional; details: MCF7, 840 h, read-out: TGI
MCF7 [27] = test: Antitumor activity against human MCF7 cells harboring ESR1 Y537S mutant xenografted in CB17 SCID mouse assessed as tumor growth inhibition at 10 mg/kg, po qd for 4 weeks and measured 30 days post last dose; type: functional; details: MCF7, 672 h, read-out: TGI
MCF7 [28] = test: Antitumor activity against human MCF7 cells harboring ESR1 D538G mutant xenografted in CB17 SCID mouse assessed as tumor growth inhibition at 10 mg/kg, po qd for 4 weeks; type: functional; details: MCF7, 672 h, read-out: TGI
MCF7 [29] = test: Antitumor activity against human MCF7 cells harboring ESR1 D538G mutant xenografted in CB17 SCID mouse assessed as tumor growth inhibition at 30 mg/kg, po qd for 4 weeks; type: functional; details: MCF7, 672 h, read-out: TGI
MCF7 [30] = test: Antitumor activity against human MCF7 cells harboring ESR1 D538G mutant xenografted in CB17 SCID mouse assessed as tumor growth inhibition at 10 mg/kg, po qd for 4 weeks and measured 1 week post last dose; type: functional, organism-based
[31] = Toxicity in CB17 SCID mouse xenografted with human MCF7 cells harboring ESR1 Y537S mutant assessed as body weight change at 30 mg/kg,po qd for 4 weeks; type: organism-based; details: in vivo, 672 h
in vivo [32] = details: Sprague-Dawley, rat, po, 3 mg/kg
in vivo [33] = details: Sprague-Dawley, rat, po, 3 mg/kg; remark: listed apart in the source

Work on `C[C@@H]1Cc2c(ccc3[nH]ncc23)[C@@H](c2c(F)cc(N3CCC4(CCN(C(=O)CN5Cc6cc7c(cc6C5)C(=O)N(C5CCC(=O)NC5=O)C7=O)CC4)CC3)cc2F)N1CC(F)F` (some centres undefined) yielded a clearance at 24 h [1] of 7.4 mL/min/kg, a clearance [2] of 5.7 mL/min/kg and a half-life [3] of 6.4 h. The Cmax [4] was 260 ng/mL, the AUC at 24 h [5] was 3370 ng·h/mL and the bioavailability [6] was 42%. The bioavailability [7] was 66%, the Activity [8] was “Dose-Dependent Effect” and the half-life at 1 µM [9] was greater than 1 h. For the same compound, the half-life at 1 µM [10] was greater than 1 h, the IC50 [11] was greater than 30 µM and the IC50 (Cytochrome P450 3A4) was greater than 10 µM. The Activity [12] was 66%, the concentration at 72 h [13] was 433 ng/mL and the concentration at 72 h [14] was 18 ng/mL. It also gave a concentration at 72 h [15] of 80 ng/mL, a concentration at 72 h [16] of 162 ng/mL and a concentration at 72 h [17] of 1980 ng/mL. The concentration at 72 h [18] was 1410 ng/mL, the Activity [19] was 70% and the concentration at 72 h [20] was 2830 ng/mL. The concentration at 72 h [21] was 692 ng/mL, the concentration at 72 h [22] was 3740 ng/mL and the concentration at 72 h [23] was 1050 ng/mL. For the same compound, the inhibition in vivo at 10 mg/kg (MCF7 [24]) was 24%, the inhibition in vivo at 30 mg/kg (MCF7 [25]) was 42% and the inhibition in vivo at 10 mg/kg (MCF7 [26]) was 13%. For the same compound, the inhibition in vivo at 10 mg/kg (MCF7 [27]) was 99%, the inhibition in vivo at 10 mg/kg (MCF7 [28]) was 38% and the inhibition in vivo at 30 mg/kg (MCF7 [29]) was 51%. The Activity (MCF7 [30]) was “Active”, the Activity [31] was “Non-Toxic” and the Cmax at 24 h (in vivo [32]) was 141 ng/mL. It also gave a bioavailability at 24 h (in vivo [33]) of 20%.
